Measured values as given in US20260232666A1, “COMPOSITIONS AND METHODS FOR INHIBITION OF RAS” (TheRas, Inc., priority 2023, published 2026).

The compounds below were run against T1, Avi-KRAS G12C (1-169) GppNHp/RAF1 RBD-3×FLAG (52-151) (Homo sapiens, UniProt P01116, G12C) (assay: Raf1 RBD-KRAS G12C-GppNHp disruption assay (protein:protein interaction HTRF)).
T1 construct: Avi-KRAS G12C (1-169) GppNHp; Avi (N)
Format: biochemical
In short: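 HTRF measuring RAF1 RBD binding to GppNHp-loaded KRAS G12C (50 nM) in Tris pH 7.5, 100 mM NaCl, 5 mM MgCl2, 10% DMSO. Compound, KRAS, RBD and detection reagents each added sequentially with 1 h room-temperature incubations; 10-point titration; excitation 320 nm, emission 615 nm; activity as % of DMSO; IC50 derived.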

T1 sequence (P01116 1-169 isoform P01116-2 G12C limits assumed): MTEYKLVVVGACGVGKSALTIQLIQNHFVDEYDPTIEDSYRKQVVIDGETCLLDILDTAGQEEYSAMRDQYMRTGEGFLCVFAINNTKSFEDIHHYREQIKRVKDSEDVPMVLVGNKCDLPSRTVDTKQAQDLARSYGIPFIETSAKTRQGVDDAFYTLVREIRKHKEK

IC50, < 500 nM:
C=CC(=O)N1CC[C@@H](N(CC)c2nc(OC[C@]34CCCN3C[C@H](F)C4)nc3c(F)c(-c4ccc(F)c5sc(N)c(C#N)c45)c(Cl)cc23)[C@H]1C [Compound 165]
C=CC(=O)N1CC[C@@H](N(CC)c2nc(OC[C@]34CCCN3C[C@H](F)C4)nc3cc(-c4ccc(F)c5sc(N)c(C#N)c45)c(F)cc23)[C@H]1C [Compound 167]
C=CC(=O)N1CC[C@@H](N(CC)c2nc(OC[C@]34CCCN3C[C@H](OC)C4)nc3c(F)c(-c4ccc(F)c5sc(N)c(C#N)c45)ccc23)[C@H]1C [Compound 169]
